This passage reports melting point and MIC results from publication PMC6429263, “Evolution and Antibacterial Evaluation of 8-Hydroxy-cycloberberine Derivatives as a Novel Family of Antibacterial Agents Against MRSA” (Molecules, 2019).

Each structure is given as a SMILES string. Several values for one entry are separate records, joined by “and”; a condition that tells them apart may be missing. Equal values may be shown once. Where a name gives a salt, the structure may show the parent alone.

In general, melting point refers to the temperature, or range, at which the solid turns liquid. Broadly, the MIC is the lowest concentration that inhibits growth of the organism.

The subject of one data set is MSSA ATCC 29213. The experiment in a line: MIC, agar dilution, MSSA ATCC 29213. It counts as cell-based, S. aureus. As to conditions: Staphylococcus aureus; MSSA ATCC 29213; read-out: MIC. (In general: Agar dilution tests growth on a series of plates holding different concentrations.)
Another data set concerns MSSA 15. The experiment in a line: MIC, agar dilution, MSSA 15 (clinical isolate). As to conditions: Staphylococcus aureus; MSSA 15, isolated from patients in China; read-out: MIC. It counts as cell-based, S. aureus.
In another data set the test system is MSSA 16-1. The experiment in a line: MIC, agar dilution, MSSA 16-1 (clinical isolate). It counts as cell-based, S. aureus. The settings on record: Staphylococcus aureus; MSSA 16-1, isolated from patients in China; read-out: MIC.
The test system of another data set is MSSE ATCC 12228. The experiment in a line: MIC, agar dilution, MSSE ATCC 12228. It counts as cell-based, S. epidermidis. The settings on record: Staphylococcus epidermidis, ATCC12228; MSSE ATCC 12228; read-out: MIC.
The test system of the next data set is MSSE 16-5. The experiment in a line: MIC, agar dilution, MSSE 16-5 (clinical isolate). It counts as cell-based, S. epidermidis. As to conditions: Staphylococcus epidermidis; MSSE 16-5, isolated from patients in China; read-out: MIC.
The next data set deals with S.s ATCC 15305. The experiment in a line: MIC, agar dilution, S.s ATCC 15305. It counts as cell-based. As to conditions: Staphylococcus saprophyticus, ATCC15305; S. saprophyticus ATCC 15305; read-out: MIC.
The subject of the next data set is S.h ATCC 35982. The experiment in a line: MIC, agar dilution, S.h ATCC 35982. It counts as cell-based. As to conditions: Staphylococcus hominis, ATCC35982; S. hominis ATCC 35982; read-out: MIC.
A further data set deals with MRSA 13-18. The experiment in a line: MIC, agar dilution, MRSA 13-18. It counts as cell-based. The settings on record: Staphylococcus aureus; MRSA 13-18; read-out: MIC.
The next data set deals with MRSA 13-23. The experiment in a line: MIC, agar dilution, MRSA 13-23. It counts as cell-based. As to conditions: Staphylococcus aureus; MRSA 13-23; read-out: MIC.
Another data set deals with MRSA 16-34. The experiment in a line: MIC, agar dilution, MRSA 16-34. It counts as cell-based. The settings on record: Staphylococcus aureus; MRSA 16-34; read-out: MIC.
Another data set relates to MRSA ATCC 43300. The experiment in a line: MIC, agar dilution, MRSA ATCC 43300. As to conditions: Staphylococcus aureus; MRSA ATCC 43300; read-out: MIC. It counts as cell-based.
In a further data set the test system is MRSA ATCC-B AA-1708. The experiment in a line: MIC, agar dilution, MRSA ATCC-BAA-1708 (mupA positive). It counts as cell-based. The settings on record: Staphylococcus aureus; MRSA ATCC-BAA-1708, mupA positive (mupirocin resistance); read-out: MIC.
The test system of a further data set is MRSA ATCC -BAA-976. The experiment in a line: MIC, agar dilution, MRSA ATCC-BAA-976 (clindamycin-resistant). It counts as cell-based. As to conditions: Staphylococcus aureus; MRSA ATCC-BAA-976, clindamycin-resistant S. aureus; read-out: MIC.
The subject of the next data set is VISA ATCC 700698. The experiment in a line: MIC, agar dilution, VISA ATCC 700698. It counts as cell-based. The settings on record: Staphylococcus aureus; VISA ATCC 700698; read-out: MIC.
The next data set has as its system VISA ATCC 700699. The experiment in a line: MIC, agar dilution, VISA ATCC 700699. It counts as cell-based. As to conditions: Staphylococcus aureus; VISA ATCC 700699; read-out: MIC.
The subject of another data set is MRSE 13-3. The experiment in a line: MIC, agar dilution, MRSE 13-3. The settings on record: Staphylococcus epidermidis; MRSE 13-3; read-out: MIC. It counts as cell-based, S. epidermidis.
For a further data set, the system named is MRSE 16-5. The experiment in a line: MIC, agar dilution, MRSE 16-5. It counts as cell-based, S. epidermidis. As to conditions: Staphylococcus epidermidis; MRSE 16-5; read-out: MIC.

The compound `COc1ccc2c(c[n+]3ccc4cc5c(c6c(Cc7ccccc7)cc2c3c46)OCO5)c1O` (as salt: chloride) [13a, 1,2-Methylenedioxy-8-hydroxy-9-methoxy-13-benzylcycloberberine chloride] returned a melting point of 248 to 250 °C. `COc1ccc2c(c[n+]3ccc4cc5c(c6c(Cc7ccc(F)cc7)cc2c3c46)OCO5)c1O` (as salt: chloride) [13b, 1,2-Methylenedioxy-8-hydroxy-9-methoxy-13-p-fluorobenzylcycloberberine chloride] showed a melting point of 203 to 205 °C. On to `COc1ccc2c(c[n+]3ccc4cc5c(c6c(Cc7ccc(F)cc7F)cc2c3c46)OCO5)c1O` (as salt: chloride) [13c, 1,2-Methylenedioxy-8-hydroxy-9-methoxy-13-2′,4′-difluorobenzylcycloberberine chloride], for which the melting point fell in the range of 218 to 220 °C. `COc1ccc2c(c[n+]3ccc4cc5c(c6c(Cc7c(F)cccc7F)cc2c3c46)OCO5)c1O` (as salt: chloride) [13d, 1,2-Methylenedioxy-8-hydroxy-9-methoxy-13-2′,6′-difluorobenzylcycloberberine chloride] yielded a melting point of 214 to 216 °C. On the same count and under the same terms, then `COc1ccc2c(c[n+]3ccc4cc5c(c6c(Cc7ccc(Cl)cc7)cc2c3c46)OCO5)c1O` (as salt: chloride) [13e, 1,2-Methylenedioxy-8-hydroxy-9-methoxy-13-p-chlorobenzylcycloberberine chloride], with 199 to 201 °C; and `COc1ccc2c(c[n+]3ccc4cc5c(c6c(Cc7ccc(Br)cc7)cc2c3c46)OCO5)c1O` (as salt: chloride) [13f, 1,2-Methylenedioxy-8-hydroxy-9-methoxy-13-p-bromobenzylcycloberberine chloride], with 207 to 209 °C. `COc1ccc2c(c[n+]3ccc4cc5c(c6c(Cc7ccccc7C)cc2c3c46)OCO5)c1O` (as salt: chloride) [13g, 1,2-Methylenedioxy-8-hydroxy-9-methoxy-13-o-methylbenzylcycloberberine chloride] had a melting point of 203 to 205 °C. With `COc1ccc2c(c[n+]3ccc4cc5c(c6c(Cc7cccc(C)c7)cc2c3c46)OCO5)c1O` (as salt: chloride) [13h, 1,2-Methylenedioxy-8-hydroxy-9-methoxy-13-m-methylbenzylcycloberberine chloride], the melting point lay within 203 to 205 °C. The same measure, in the same setting: the same measure for `COc1ccc2c(c[n+]3ccc4cc5c(c6c(Cc7ccc(C)cc7)cc2c3c46)OCO5)c1O` (as salt: chloride) [13i, 1,2-Methylenedioxy-8-hydroxy-9-methoxy-13-p-methylbenzylcycloberberine chloride]: 229 to 231 °C; for `COc1ccc2c(c[n+]3ccc4cc5c(c6c(Cc7cc(C)cc(C)c7)cc2c3c46)OCO5)c1O` (as salt: chloride) [13j, 1,2-Methylenedioxy-8-hydroxy-9-methoxy-13-3′,5′-dimethylbenzylcycloberberine chloride]: 218 to 220 °C; for `COc1ccc2c(c[n+]3ccc4cc5c(c6c(Cc7ccc(C(C)(C)C)cc7)cc2c3c46)OCO5)c1O` (as salt: chloride) [13k, 1,2-Methylenedioxy-8-hydroxy-9-methoxy-13-p-tert-butylmethylbenzylcyclo berberine chloride]: 212 to 214 °C.

Compound `COc1ccc2c(c[n+]3ccc4cc5c(c6c(Cc7ccc(OC(F)(F)F)cc7)cc2c3c46)OCO5)c1O` (as salt: chloride) [13l, 1,2-Methylenedioxy-8-hydroxy-9-methoxy-13-p-trifluoromethoxybenzylcyclo berberine chloride] returned a melting point of 185 to 187 °C. For the compound `COc1ccc2c(c[n+]3ccc4cc5c(c6c(Cc7ccccc7C#N)cc2c3c46)OCO5)c1O` (as salt: chloride) [13m, 1,2-Methylenedioxy-8-hydroxy-9-methoxy-13-o-cyanbenzylcycloberberine chloride], the melting point was in the range of 209 to 211 °C.

Compound `COc1ccc2c(c[n+]3ccc4cc5c(c6c(Cc7cccc(C#N)c7)cc2c3c46)OCO5)c1O` (as salt: chloride) [13n, 1,2-Methylenedioxy-8-hydroxy-9-dimethoxy-13-m-cyanbenzylcycloberberine chloride] gave a melting point of 189 to 191 °C. Still for that read-out and setting: then `COc1ccc2c(c[n+]3ccc4cc5c(c6c(Cc7ccc(C#N)cc7)cc2c3c46)OCO5)c1O` (as salt: chloride) [13o, 1,2-Methylenedioxy-8-hydroxy-9-dimethoxy-13-p-cyanbenzylcycloberberine chloride], with 197 to 199 °C; and `COc1ccc2c(c[n+]3ccc4cc5c(c6c(Cc7ccccc7[N+](=O)[O-])cc2c3c46)OCO5)c1O` (as salt: chloride) [13p, 1,2-Methylenedioxy-8-hydroxy-9-methoxy-13-o-nitrobenzylcycloberberine chloride], with 199 to 201 °C; and `COc1ccc2c(c[n+]3ccc4cc5c(c6c(Cc7cccc([N+](=O)[O-])c7)cc2c3c46)OCO5)c1O` (as salt: chloride) [13q, 1,2-Methylenedioxy-8-hydroxy-9-methoxy-13-m-nitrobenzylcycloberberine chloride], with 186 to 188 °C. For the compound `COc1ccc2c(c[n+]3ccc4cc5c(c6c(Cc7ccc([N+](=O)[O-])cc7)cc2c3c46)OCO5)c1O` (as salt: chloride) [13r, 1,2-Methylenedioxy-8-hydroxy-9-methoxy-13-p-nitrobenzylcycloberberine chloride], the melting point was 186 to 188 °C. On to `COc1ccc2c(c[n+]3ccc4cc5c(c6c(C(C)c7ccccc7)cc2c3c46)OCO5)c1O` (centres unmarked) (as salt: chloride) [13s, 1,2-Methylenedioxy-8-hydroxy-9-methoxy-13-1′-phenylethylcycloberberine chloride], for which the melting point fell in the range of 213 to 215 °C. The same measure, in the same setting: then `COC(=O)C(c1ccccc1)c1cc2c3ccc(OC)c(O)c3c[n+]3ccc4cc5c(c1c4c23)OCO5` (centres unmarked) (as salt: chloride) [13t, 1,2-Methylenedioxy-8-hydroxy-9-methoxy-13-2′-methoxy-2′-oxo-1′-phenylethylcycloberberine chloride], with 173 to 175 °C; and `CCCc1cc2c3ccc(OC)c(O)c3c[n+]3ccc4cc5c(c1c4c23)OCO5` (as salt: chloride) [15b, 1,2-Methylenedioxy-8-hydroxy-9-methoxy-13-propylcycloberberine chloride], with 165 to 167 °C. The same measure, in the same setting: the same measure for `CCCCc1cc2c3ccc(OC)c(O)c3c[n+]3ccc4cc5c(c1c4c23)OCO5` (as salt: chloride) [15c, 1,2-Methylenedioxy-8-hydroxy-9-methoxy-13-butylcycloberberine chloride]: 162 to 164 °C; for `COc1ccc2c(c[n+]3c4c2ccc2c(OC)c(OC)cc(c24)CC3)c1O` (as salt: chloride) [compound 6, 1,2-Dimethoxy-8-hydroxy-9-methoxycycloberberine Chloride]: 176 to 178 °C and 180 to 182 °C; for `COc1ccc2c(c[n+]3c4c2ccc2c(O)c(O)cc(c24)CC3)c1O` (as salt: chloride) [compound 10, 1,2,8-Trihydroxy-9-methoxycycloberberine Chloride]: 191 to 193 °C. As to `COc1ccc2c(c[n+]3ccc4cc5c(c6c(Cc7ccc(F)cc7)cc2c3c46)OCO5)c1O` [13b, 1,2-Methylenedioxy-8-hydroxy-9-methoxy-13-p-fluorobenzylcycloberberine chloride], the MIC in the data set on MSSA ATCC 29213, in the data set with MSSA 15, in the data set with MSSA 16-1, in the data set with MSSE ATCC 12228, with MSSE 16-5 and in the data set on S.s ATCC 15305 was greater than 64 µg/mL in each case. Further, the MIC with S.h ATCC 35982, with MRSA 13-18, in the data set with MRSA 13-23, in the data set with MRSA 16-34, in the data set with MRSA ATCC 43300 and with MRSA ATCC-B AA-1708 was greater than 64 µg/mL throughout. The MIC with MRSA ATCC -BAA-976, with VISA ATCC 700698, in the data set on VISA ATCC 700699, in the data set on MRSE 13-3 and in the data set with MRSE 16-5 was greater than 64 µg/mL in each case.
